Data on two compounds can be found in patent publication US20050276794A1, “Composition and method for improving pancreatic islet cell survival” (priority 2004, published 2005).

One experiment deals with isolated islet cells. The experiment is classed as cell-based. The procedure:
Single islets were hand-picked from a Petri dish under microscopy and transferred to wells in a 96-well microculture plate. Micronutrients comprising alpha-tocopherol (50 μM), gamma-tocopherol (50 μM), and succinate (5 μM) were added to wells in various combinations, with regular media (no added micronutrients) used as control. Islet cell survival was indicated by maintenance of a more compact cell mass, with disruption of the cell mass indicating islet cell death detected by microscopic means. […] Samples are shown in duplicate (a—middle panel, and b—bottom panel), with the corresponding control in the top panel.

The subject of the next experiment is porcine islets. Nature of the experiment: Islet morphology under anoxia (photomicrographs). Particulars: 100 μM alone; up to 30 hrs anoxia; versus untreated islets. Type of experiment: cell-based. As for the experimental part: Porcine islets were hand picked and placed in wells (one islet/well in triplicates) in a 96 micro plate. The islets were pre-incubated either in regular porcine culture media (M199) or in media supplemented with alpha-tocopherol 100 μM, gamma-tocopherol 100 μM or the combination of alpha-+gamma-tocopherol, 50 μM each prior to exposure to anoxia. Islets were then incubated for additional 30 hrs either under normoxia (control—95% Air, 5%CO2) or anoxia (95%N2, 5%CO2) in the presence or absence of the indicated vitamin E concentration. At four different time points (0 h, 12 h, 24 h and 30 h), islets were removed from the incubator, examined microscopically and photomicrographs were obtained. Panel A: Porcine islets cultured with regular porcine culture media (M199) under anoxia. As indicated by the photomicrographs, anoxia caused a significant change in to the islet morphology. […]
Porcine islets were isolated and then cultured for 48 hours according to standard protocols Islets were then cultured for an additional 18-24 hours in media in the presence or absence of alpha-tocopherol and gamma-tocopherol (50 μM each). […] Islet quality was assessed at time intervals ranging from 6 to 24 hours from the initiation of exposure to anoxia with Oxygen Consumption Rate (OCR), ATP, Caspase 3/7 activity measurements (all normalized to DNA), microphotography and transplantation into diabetic nude mice. […]

Where [1] appears, read: isolated islet cells in culture medium.

The structures appear in SMILES notation.

In the case of `Cc1c(C)c2c(c(C)c1O)CC[C@@](C)(CCC[C@H](C)CCC[C@H](C)CCCC(C)C)O2` [alpha-tocopherol], in the experiment on isolated islet cells (setting [1]), the “concentration at which increased benefit is noted” value is “at least 50 μM” and the “concentration at which protective effect is exhibited” value is “at least 10 μM”. In the experiment on porcine islets, the “islet morphology after exposure to anoxia” value was “more normal morphology”.
As to `Cc1c(O)cc2c(c1C)O[C@](C)(CCC[C@H](C)CCC[C@H](C)CCCC(C)C)CC2` [gamma-tocopherol], the “protective benefit for preventing cell death in isolated islet cells (comparison)” value with isolated islet cells (compared with alpha-tocopherol or either tocopherol alone) is “more protective benefit”. Moreover, in the experiment on porcine islets, the “islet morphology after exposure to anoxia” value is listed as “more normal morphology”.
